Patent US20020137929A1, “1 - (3-heterocyclylphenyl) isothiourea, -isourea, -guanidine and -amidine herbicidal agents” (Intellectual Property Department, BASF Aktiengesellschaft, priority 1998, published 2002)

Experiments:
[1] = system: SAGPY (Arrowhead (Pygmaea)); test: Preemergence weed control under flooded paddy conditions; assay type: in vivo, Sagittaria pygmaea; conditions: rated 3-4 weeks after treatment
In short: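 Visual injury scored 0-9 against control three to four weeks post-treatment, greenhouse-grown. Application: acetone/water (50/50) solutions dosed directly into flood water (1.5-3 cm over silt loam, planted top 0.5 cm), roughly 0.0313 to 0.500 kg/ha active ingredient.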

[2] = system: TRZAWR (Wheat, Winter, cv Riband); test: Preemergence herbicidal evaluation; assay type: in vivo, Triticum aestivum; conditions: rated 4-5 weeks after treatment
In short: (§1)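 Each species is sown separately in potting soil over roughly an inch of soil before any emergence. The soil surface then receives an aqueous acetone spray delivering about 0.0156 to 0.500 kg/ha of compound. After four to five weeks, injury is scored from 0 to 9 relative to a control.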

ORYSAT (Rice, Tebonnet) = test: Preemergence herbicidal evaluation; assay type: in vivo, Oryza sativa, (L.) Tebonnet; conditions: rated 4-5 weeks after treatment
In short: as §1

CASOB (Sicklepod) = test: Postemergence herbicidal evaluation; assay type: in vivo, Cassia obtusifolia; conditions: postemergence
In short: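 First, seedlings were raised for around two weeks. Next, test material in 50/50 acetone/water containing 0.5% TWEEN 20 was sprayed through a nozzle at 40 psi, equivalent to about 0.0156–0.500 kg/ha. Finally, after 4–5 weeks in the greenhouse, plants were rated 0–9.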

[3] = system: GLXMAW (Soybean, Williams); test: Preemergence herbicidal evaluation; assay type: in vivo, Glycine max, (L.) Merr. cv Williams; conditions: rated 4-5 weeks after treatment
In short: as §1

| Structure (SMILES) | SAGPY herbicidal effect rating ([1]; 0.0313 kg/ha) | SAGPY herbicidal effect rating ([1]; 0.0625 kg/ha) | SAGPY herbicidal effect rating ([1]; 0.1250 kg/ha) | SAGPY herbicidal effect rating ([1]; 0.2500 kg/ha) | Preemergence herbicidal rating TRZAWR ([2]; rate 0.0156 kg/ha) | Preemergence herbicidal rating TRZAWR ([2]; rate 0.0313 kg/ha) | Preemergence herbicidal rating TRZAWR ([2]; rate 0.0625 kg/ha) | Preemergence herbicidal rating TRZAWR ([2]; rate 0.1250 kg/ha) | Preemergence herbicidal rating TRZAWR ([2]; rate 0.2500 kg/ha) | Preemergence herbicidal rating ORYSAT (ORYSAT (Rice, Tebonnet); rate 0.0156 kg/ha) | Preemergence herbicidal rating ORYSAT (ORYSAT (Rice, Tebonnet); rate 0.0313 kg/ha) | Preemergence herbicidal rating ORYSAT (ORYSAT (Rice, Tebonnet); rate 0.0625 kg/ha) | Preemergence herbicidal rating ORYSAT (ORYSAT (Rice, Tebonnet); rate 0.1250 kg/ha) | Preemergence herbicidal rating ORYSAT (ORYSAT (Rice, Tebonnet); rate 0.2500 kg/ha) | CASOB herbicidal rating (CASOB (Sicklepod); rate 0.0158 kg/ha) | CASOB herbicidal rating (CASOB (Sicklepod); rate 0.0315 kg/ha) | CASOB herbicidal rating (CASOB (Sicklepod); rate 0.0630 kg/ha) | Preemergence herbicidal rating GLXMAW ([3]; rate 0.0625 kg/ha) | Preemergence herbicidal rating GLXMAW ([3]; rate 0.1250 kg/ha) | Preemergence herbicidal rating GLXMAW ([3]; rate 0.2500 kg/ha) | also measured |
| --- | --- | --- | --- | --- | --- | --- | --- | --- | --- | --- | --- | --- | --- | --- | --- | --- | --- | --- | --- | --- | --- |
| Cn1c(C(F)(F)F)cc(=O)n(-c2cc(N=C3SCC(=O)N3[C@H](Cc3ccccc3)C(=O)O)c(Cl)cc2F)c1=O [Compound 69, α-Benzyl-2-{{2-chloro-5-[3,6-dihydro-3-methyl-2,6-dioxo-4-(trifluoromethyl)-1(2H)-pyrimidinyl]-4-fluorophenyl}imino}-4-oxo-3-thiazolidineacetic acid, D-] | 0.0 | 0.0 | 3.0 | 3.0 | 0.0 | 0.0 | 0.0 | 1.0 | 1.0 | 0.0 | 0.0 | 0.0 | 1.0 | 1.0 | 1.0 | 2.0 | 2.0 | 0.0 | 1.0 | 2.0 | Preemergence herbicidal rating GLXMAW ([3]; rate 0.0156 kg/ha): 1.0; Preemergence herbicidal rating GLXMAW ([3]; rate 0.0313 kg/ha): 0.0 |
| CCOC(=O)CN1C(=O)C(Cl)SC1=Nc1cc(-n2c(=O)cc(C(F)(F)F)n(C)c2=O)c(F)cc1Cl (centres unmarked) [Compound 126, Ethyl 5-chloro-2-{{2-chloro-5-[3,6-dihydro-3-methyl-2,6-dioxo-4-(trifluoromethyl)-1(2H)-pyrimidinyl]-4-fluorophenyl}imino}-4-oxo-3-thiazolidineacetate] |  |  |  |  |  |  | 0.0 | 0.0 | 0.0 |  |  | 0.0 | 0.0 | 0.0 |  |  |  | 0.0 | 2.0 | 3.0 | herbicidal effect rating, SAGPY ([1]; 0.0313 kg/ha): 0.0; herbicidal effect rating, SAGPY ([1]; 0.0625 kg/ha): 0.0; herbicidal effect rating, SAGPY ([1]; 0.1250 kg/ha): 3.0; herbicidal effect rating, SAGPY ([1]; 0.2500 kg/ha): 3.0; Preemergence herbicidal rating TRZAWR ([2]; rate 0.5000 kg/ha): 0.0; Preemergence herbicidal rating ORYSAT (ORYSAT (Rice, Tebonnet); rate 0.5000 kg/ha): 3.0; herbicidal rating CASOB (CASOB (Sicklepod); rate 0.0156 kg/ha): 0.0; herbicidal rating CASOB (CASOB (Sicklepod); rate 0.0313 kg/ha): 0.0; herbicidal rating CASOB (CASOB (Sicklepod); rate 0.0625 kg/ha): 2.0; herbicidal rating CASOB (CASOB (Sicklepod); rate 0.1250 kg/ha): 4.0; Preemergence herbicidal rating GLXMAW ([3]; rate 0.5000 kg/ha): 7.0 |
| COC(=O)[C@H](Cc1ccccc1)N1C(=O)CS/C1=N/c1cc(-n2c(=O)cc(C(F)(F)F)n(C)c2=O)c(F)cc1Cl [Compound 72, Methyl α-benzyl-2-{{2-chloro-5-[3,6-dihydro-3-methyl-2,6-dioxo-4-(trifluoromethyl)-1(2H)-pyrimidinyl]-4-fluorophenyl]imino}-4-oxo-3-thiazolidineacetate, L-] | 4.0 | 4.0 | 4.0 | 4.0 | 0.0 | 0.0 | 0.0 | 1.0 | 2.0 | 0.0 | 0.0 | 0.0 | 1.0 | 1.0 | 8.0 | 6.0 | 7.0 | 0.0 | 1.0 | 3.0 | Preemergence herbicidal rating GLXMAW ([3]; rate 0.0156 kg/ha): 0.0; Preemergence herbicidal rating GLXMAW ([3]; rate 0.0313 kg/ha): 0.0 |
| COC(=O)[C@H](Cc1ccc([N+](=O)[O-])cc1)N1C(=O)CSC1=Nc1cc(-n2c(=O)cc(C(F)(F)F)n(C)c2=O)c(F)cc1Cl [Compound 78, Methyl 2-{{2-chloro-5-[3,6-dihydro-3-methyl-2,6-dioxo-4-(trifluoromethyl)-1(2H)-pyrimidinyl]-4-fluorophenyl}imino}-4-oxo-α-(p-nitrobenzyl)-3-thiazolidineacetate, L-] | 0.0 | 0.0 | 2.0 | 4.0 | 0.0 | 0.0 | 0.0 | 0.0 | 0.0 | 0.0 | 0.0 | 0.0 | 0.0 | 0.0 | 1.0 | 1.0 | 3.0 | 0.0 | 0.0 | 1.0 | Preemergence herbicidal rating GLXMAW ([3]; rate 0.0156 kg/ha): 1.0; Preemergence herbicidal rating GLXMAW ([3]; rate 0.0313 kg/ha): 0.0 |
